Assays:
FADD−/− Jurkat cells = test: Necroptosis inhibition assay, TNF-α-induced necroptosis (CellTiter-Glo 2.0); format: cell-based, human; settings: TNF-α 15 ng/mL; for Necroptosis inhibition assay (Rescue %) 1 μM: compound 1 μM; for Necroptosis inhibition assay (Rescue %) 10 μM: compound 10 μM
Outline: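 Necroptosis was triggered by TNF-α at 15 ng/mL final following 30 minutes of compound exposure (0.1, 1 or 10 μM final). Incubation ran 20 to 24 hours at 37° C under 5% CO2; cell ATP was then quantified by luminescence.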

MLKL = biological target: T1, MLKL (Homo sapiens, UniProt Q8NB16); test: Measurement of binding affinity with MLKL receptor (competitive binding assay, Kd); parameters: made in house; host or cells: HEK 293 cell line (T7 phage in E. coli BL21-derived host is also described)
T1 sequence (Q8NB16 1-471): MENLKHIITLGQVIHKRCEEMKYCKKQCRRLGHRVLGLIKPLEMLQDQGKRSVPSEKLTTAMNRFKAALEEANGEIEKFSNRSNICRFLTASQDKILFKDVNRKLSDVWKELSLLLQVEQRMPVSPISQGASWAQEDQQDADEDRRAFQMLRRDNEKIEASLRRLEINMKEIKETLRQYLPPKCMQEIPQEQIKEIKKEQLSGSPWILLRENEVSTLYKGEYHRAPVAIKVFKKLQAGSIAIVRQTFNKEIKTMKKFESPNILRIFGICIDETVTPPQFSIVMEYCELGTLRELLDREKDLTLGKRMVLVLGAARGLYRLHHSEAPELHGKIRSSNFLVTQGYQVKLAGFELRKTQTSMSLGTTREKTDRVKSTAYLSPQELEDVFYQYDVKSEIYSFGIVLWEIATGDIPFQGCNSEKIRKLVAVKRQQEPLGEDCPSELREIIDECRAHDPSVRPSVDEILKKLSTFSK
Outline: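 HEK 293-expressed, DNA-tagged MLKL; ligand beads blocked with biotin and SeaBlock/1% BSA/0.05% Tween 20/1 mM DTT buffer. Cpd from 111× DMSO stock, 0.9% DMSO final. Eluted kinase by qPCR → Kd.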

`Nc1ncc(-c2cnn(C3CCN(CCOCCOCCNC(=O)C4CCN(c5ccc6c(c5)C(=O)N(C5CCC(=O)NC5=O)C6=O)CC4)CC3)c2)nc1C(=O)N[C@@H](C(=O)Nc1ccc(F)cc1)c1ccccc1` (stereo partly drawn) [TDH-214, 3-amino-6-(1-(1-(2-(2-(2-(1-(2-(2,6-dioxopiperidin-3-yl)-1,3-dioxoisoindolin-5-yl)piperidine-4-carboxamido)ethoxy)ethoxy)ethyl)piperidin-4-yl)-1H-pyrazol-4-yl)-N-((R)-2-((4-fluorophenyl)amino)-2-oxo-1-phenylethyl)pyrazine-2-carboxamide] was tested, and the “Necroptosis inhibition assay (Rescue %) 1 μM” value (FADD−/− Jurkat cells) was 26.74%, the “Necroptosis inhibition assay (Rescue %) 10 μM” value (FADD−/− Jurkat cells) was 48.41% and the Kd (MLKL) was 180 nM.

In the case of `Nc1ncc(-c2cnn(C3CCN(CC4CCN(c5cccc6c5C(=O)N(C5CCC(=O)NC5=O)C6=O)CC4)CC3)c2)nc1C(=O)N[C@@H](C(=O)Nc1ccc(F)cc1)c1ccccc1` (stereo partly drawn) [TDH-208, 3-amino-6-(1-(1-((1-(2-(2,6-dioxopiperidin-3-yl)-1,3-dioxoisoindolin-4-yl)piperidin-4-yl)methyl)piperidin-4-yl)-1H-pyrazol-4-yl)-N-((R)-2-((4-fluorophenyl)amino)-2-oxo-1-phenylethyl)pyrazine-2-carboxamide], the “Necroptosis inhibition assay (Rescue %) 10 μM” value (FADD−/− Jurkat cells) is reported as 15.28% and the Kd (MLKL) is reported as 350 nM.

`Nc1ncc(-c2ccc(N3CCN(CC4CCN(C(=O)C5CCN(c6cccc7c6C(=O)N(C6CCC(=O)NC6=O)C7=O)CC5)CC4)CC3)nc2)nc1C(=O)OC(C(=O)Nc1ccc(F)cc1)c1ccccc1` (stereo not shown) [TDH-230, 2-((4-fluorophenyl)amino)-2-oxo-1-phenylethyl 3-amino-6-(6-(4-((1-(1-(2-(2,6-dioxopiperidin-3-yl)-1,3-dioxoisoindolin-4-yl)piperidine-4-carbonyl)piperidin-4-yl)methyl)piperazin-1-yl)pyridin-3-yl)pyrazine-2-carboxylate] was tested, and the “Necroptosis inhibition assay (Rescue %) 1 μM” value (FADD−/− Jurkat cells) was 7.4%, the “Necroptosis inhibition assay (Rescue %) 10 μM” value (FADD−/− Jurkat cells) was 10.64% and the Kd (MLKL) was 140 nM.

With `Nc1ncc(-c2cnn(C3CCN(C(=O)COCCOCCNC(=O)C4CN(c5cccc6c5C(=O)N(C5CCC(=O)NC5=O)C6=O)C4)CC3)c2)nc1C(=O)O[C@@H](C(=O)Nc1ccc(F)cc1)c1ccccc1` (stereo partly drawn) [TDH-192, (R)-2-((4-fluorophenyl)amino)-2-oxo-1-phenylethyl 3-amino-6-(1-(1-(2-(2-(2-(1-(2-(2,6-dioxopiperidin-3-yl)-1,3-dioxoisoindolin-4-yl)azetidine-3-carboxamido)ethoxy)ethoxy)acetyl)piperidin-4-yl)-1H-pyrazol-4-yl)pyrazine-2-carboxylate] the “Necroptosis inhibition assay (Rescue %) 1 μM” value (FADD−/− Jurkat cells) was 50.37%, the “Necroptosis inhibition assay (Rescue %) 10 μM” value (FADD−/− Jurkat cells) was 45.32% and the Kd (MLKL) was 6.1 nM.

`Nc1ncc(-c2cnn(C3CCN(CC4CCN(C(=O)C5CCN(c6ccc7c(c6)C(=O)N(C6CCC(=O)NC6=O)C7=O)CC5)CC4)CC3)c2)nc1C(=O)N[C@@H](C(=O)Nc1ccc(F)cc1)c1ccccc1` (stereo partly drawn) [TDH-210, 3-amino-6-(1-(1-((1-(1-(2-(2,6-dioxopiperidin-3-yl)-1,3-dioxoisoindolin-5-yl)piperidine-4-carbonyl)piperidin-4-yl)methyl)piperidin-4-yl)-1H-pyrazol-4-yl)-N-((R)-2-((4-fluorophenyl)amino)-2-oxo-1-phenylethyl)pyrazine-2-carboxamide] was tested, and the “Necroptosis inhibition assay (Rescue %) 1 μM” value (FADD−/− Jurkat cells) was 7.5%, the “Necroptosis inhibition assay (Rescue %) 10 μM” value (FADD−/− Jurkat cells) was 10.08% and the Kd (MLKL) was 300 nM.

With `Nc1ncc(C2=CCN(C(=O)CCCCCNC(=O)COc3cccc4c3C(=O)N(C3CCC(=O)NC3=O)C4=O)CC2)cc1C(=O)O[C@@H](C(=O)Nc1ccc(F)cc1)c1ccccc1` (stereo partly drawn) [TDH-081, (R)-2-((4-fluorophenyl)amino)-2-oxo-1-phenylethyl 6-amino-1′-(6-(2-((2-(2,6-dioxopiperidin-3-yl)-1,3-dioxoisoindolin-4-yl)oxy)acetamido)hexanoyl)-1′,2′,3′,6′-tetrahydro-[3,4′-bipyridine]-5-carboxylate] the “Necroptosis inhibition assay (Rescue %) 1 μM” value (FADD−/− Jurkat cells) was 6.8% and the Kd (MLKL) was 50 nM.

— patent publication US20240252488A1 (KOREA RESEARCH INSTITUTE OF CHEMICAL TECHNOLOGY, priority 2020, published 2024)
